Results published in PMC9229949 (Pharmaceutics, 2022).

Experiments:
human TrxR (hTrxR) = target: T1, human TrxR (hTrxR) (Homo sapiens, UniProt Q16881); experiment: Inhibition of enzymatic activity of recombinant human TrxR; format: biochemical; conditions: recombinant enzyme, 15 min preincubation; mean of one experiment; read-out: IC50 for TrxRs, Human (Sec)
T1 construct: made in house
T1 sequence (Q16881 151-649 limits assumed): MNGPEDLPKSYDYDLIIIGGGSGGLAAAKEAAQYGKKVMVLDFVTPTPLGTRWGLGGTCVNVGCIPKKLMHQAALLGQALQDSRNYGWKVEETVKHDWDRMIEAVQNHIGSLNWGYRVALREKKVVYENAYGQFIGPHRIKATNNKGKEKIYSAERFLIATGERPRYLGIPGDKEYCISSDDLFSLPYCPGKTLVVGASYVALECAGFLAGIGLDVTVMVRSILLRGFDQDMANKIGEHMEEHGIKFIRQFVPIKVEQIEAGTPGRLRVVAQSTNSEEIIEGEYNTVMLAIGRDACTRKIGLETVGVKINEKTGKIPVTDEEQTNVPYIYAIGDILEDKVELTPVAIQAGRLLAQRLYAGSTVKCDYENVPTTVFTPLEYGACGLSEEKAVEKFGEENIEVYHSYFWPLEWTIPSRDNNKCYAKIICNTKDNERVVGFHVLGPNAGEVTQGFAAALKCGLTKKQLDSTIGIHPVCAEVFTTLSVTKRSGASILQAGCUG
Description: (§1) The codon-optimized sequence for PfTrxR [27, 28] was synthesized and subcloned into pET-15b (Genscript) and expressed and purified as for human glutathione reductase (hGR). Recombinant Schistosoma mansoni (S. mansoni) thioredoxin glutathione reductase (SmTGR), human TrxR (hTrxR), and hGR proteins were expressed and purified as described. TrxR and TGR enzyme inhibition assays were performed in triplicate at 25 °C in 0.1 M potassium phosphate (pH 7.4), 10 mM EDTA, 100 µM NADPH and 0.01% Tween-20. SmTGR (4 nM), hTrxR (4 nM), and PfTrxR (50 nM) were preincubated with the compounds for 15 min. The reaction was started with addition of an equal volume of 5,5′-dithiobis(2-nitrobenzoic acid) (6 mM) and NADPH (100 µM). The increase in A412 during the first 3 min was recorded. […]. The reactions were performed in triplicate. The IC50s were calculated in Prism version 5.01.

[1] = target: T2, S. mansoni thioredoxin-glutathione reductase (SmTGR) (Schistosoma mansoni, UniProt Q962Y6); experiment: Inhibition of enzymatic activity of recombinant S. mansoni thioredoxin glutathione reductase; format: biochemical; conditions: 15 min preincubation, mean of one experiment, read-out: IC50 for TrxRs, S. mansoni (Sec)
T2 construct: made in house
T2 sequence (Q962Y6 1-598): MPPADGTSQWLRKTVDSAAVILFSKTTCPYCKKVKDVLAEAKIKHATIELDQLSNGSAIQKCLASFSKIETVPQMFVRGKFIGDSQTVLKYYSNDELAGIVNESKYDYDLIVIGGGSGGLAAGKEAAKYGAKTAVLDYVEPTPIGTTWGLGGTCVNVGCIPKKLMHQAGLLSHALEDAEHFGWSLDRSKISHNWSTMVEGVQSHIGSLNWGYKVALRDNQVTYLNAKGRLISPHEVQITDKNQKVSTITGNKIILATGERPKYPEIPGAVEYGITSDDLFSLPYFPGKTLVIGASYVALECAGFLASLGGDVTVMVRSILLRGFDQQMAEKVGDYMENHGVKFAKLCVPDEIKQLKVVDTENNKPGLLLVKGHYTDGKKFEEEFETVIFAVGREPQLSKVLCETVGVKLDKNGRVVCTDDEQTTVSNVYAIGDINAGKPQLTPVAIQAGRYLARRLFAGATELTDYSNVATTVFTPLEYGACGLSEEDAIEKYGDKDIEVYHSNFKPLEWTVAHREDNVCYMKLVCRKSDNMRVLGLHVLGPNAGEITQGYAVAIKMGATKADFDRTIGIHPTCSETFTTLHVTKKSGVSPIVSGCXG
Description: as §1

PfTrxR = target: T3, PfTrxR (Plasmodium falciparum, UniProt Q25861); experiment: Inhibition of enzymatic activity of recombinant P. falciparum TrxR; format: biochemical; conditions: recombinant enzyme, 15 min preincubation; mean of one experiment; read-out: IC50 for TrxRs, P. falciparum (Cys)
T3 construct: made in house
T3 sequence (Q25861 1-541): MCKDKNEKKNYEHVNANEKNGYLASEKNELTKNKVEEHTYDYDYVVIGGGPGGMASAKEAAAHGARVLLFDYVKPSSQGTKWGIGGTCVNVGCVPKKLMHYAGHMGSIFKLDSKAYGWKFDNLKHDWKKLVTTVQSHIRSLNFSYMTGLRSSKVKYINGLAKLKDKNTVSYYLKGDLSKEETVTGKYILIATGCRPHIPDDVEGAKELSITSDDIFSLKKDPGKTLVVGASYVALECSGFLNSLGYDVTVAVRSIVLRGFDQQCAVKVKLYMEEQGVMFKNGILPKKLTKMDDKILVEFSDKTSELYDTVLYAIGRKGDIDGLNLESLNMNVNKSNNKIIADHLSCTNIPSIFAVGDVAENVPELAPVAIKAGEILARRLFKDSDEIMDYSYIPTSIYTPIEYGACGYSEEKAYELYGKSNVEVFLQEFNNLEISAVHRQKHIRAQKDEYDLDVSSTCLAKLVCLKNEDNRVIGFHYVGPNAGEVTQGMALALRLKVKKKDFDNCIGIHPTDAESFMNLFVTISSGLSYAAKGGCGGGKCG
Description: as §1

[2] = target: T4, human glutathione reductase (hGR) (Homo sapiens, UniProt P00390); experiment: Inhibition of enzymatic activity of recombinant human glutathione reductase; format: biochemical; conditions: recombinant enzyme, 15 min preincubation; mean of one experiment; read-out: IC50, Human GR
T4 construct: made in house
T4 sequence (P00390 44-522): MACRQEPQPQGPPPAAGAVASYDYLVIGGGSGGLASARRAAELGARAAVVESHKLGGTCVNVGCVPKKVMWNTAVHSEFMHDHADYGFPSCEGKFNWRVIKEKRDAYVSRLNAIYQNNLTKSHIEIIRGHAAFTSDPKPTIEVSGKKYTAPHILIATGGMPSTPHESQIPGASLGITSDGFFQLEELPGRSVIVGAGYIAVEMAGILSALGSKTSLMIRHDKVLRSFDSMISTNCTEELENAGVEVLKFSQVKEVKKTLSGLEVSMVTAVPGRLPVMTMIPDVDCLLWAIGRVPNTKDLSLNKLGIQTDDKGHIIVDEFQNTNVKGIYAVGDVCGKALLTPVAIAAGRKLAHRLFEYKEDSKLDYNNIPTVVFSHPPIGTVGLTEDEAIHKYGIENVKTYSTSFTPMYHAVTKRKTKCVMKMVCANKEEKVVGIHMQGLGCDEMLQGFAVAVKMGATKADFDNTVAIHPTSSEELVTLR
Description: as §1

[3] = tested on: P. falciparum 3D7 (CQ-susceptible) asexual blood stages; set-up: method as in PMID 29465117; conditions: in vitro antiplasmodial activity; read-out: P. falciparum 3D7 (Cell Based Activity), IC50; cited from earlier work

Q: What does the source list for `CC(=O)OC[C@H]1O[C@@H]([S-])[C@H](OC(C)=O)[C@@H](OC(C)=O)[C@@H]1OC(C)=O.CCP(CC)CC.[Au+]` [Auranofin, auranofin]?
A: IC50 (human TrxR (hTrxR)): 20 nM; IC50 [1]: 7 nM; IC50 (PfTrxR): 62 nM; IC50 [2]: 40000 nM; IC50 [3]: 60 nM
